Patent US11203588B2, “Anti-cancer and splice modulating compounds and methods” (The Regents of the University of California, priority 2016, dated 2021)
Converted amounts (≈) assume the structure as drawn.

Tests used:
[1] = tested on: alternate splicing of MCL1 and BCL-X in CLL-B cells; experiment: RT-PCR analysis of alternate splicing (AS); type: cell-based, human (CLL patients); conditions: for alternate splicing (AS) events: H2A as unspliced loading control
primary CLL-B cells = experiment: In vitro cytotoxicity, specific induced apoptosis (% SIA), flow cytometry; type: cell-based, human (CLL patients); conditions: for IC50: 48 h
Text: Peripheral blood mononuclear cells (PBMC) from CLL patients were obtained from the CLL Research Consortium (CRC) tissue bank. This protocol was approved by the institutional review board (IRB) of the University of California, San Diego. Blood samples were taken from two CLL patients after written informed consent for blood sample collection and confirmation of diagnosis for CLL diseases, The PBMCs were separated from heparinized venous blood by density gradient centrifugation using Ficoll-Hypaque media (GE Healthcare). The samples with >95% positively for leukemic B cells was confirmed by staining for CD5 and CD19 followed by assessment using flow cytometry. CLL-B cells were maintained in RPMI 1640 medium supplemented with 10% FBS, 2 mM L-glutamine, and 100 U/mL of penicillin and 100 μg/mL of streptomycin at 37° C. in an atmosphere containing 5% CO2.
The CLL-B cells (3×10^5 cells) were treated for 48 h with 10, 100, 300, and 1000 nM of 1a, 1b, 2 or 19 at 37° C. in an atmosphere containing 5% CO2. Fludarabine (F-ara-A) dosed at 10 μM was used as a control. The cells were centrifuged and labeled with CD19/CD5/DiOC6 and subjected to flow cytometry. The data was analyzed using FlowJo software. […] The dose-response curves were plotted to determine IC50 values using the GraphPad Prism version 6.0c software.

[2] = tested on: intron retention in DNAJB1, ARF4, PRPF4, RIOK3, SF3A1, and U2AF2 in primary CLL-B cells; experiment: RT-PCR / qRT-PCR analysis of intron retention (IR); type: cell-based; conditions: six genes, 4 h treatment, RNU6A and GAPDH as controls
Protocol: CLL-B (5×10^6 cells/well) were treated with a given dose of compound from a DMSO stock solution over 4 h. RNA isolation and cDNA preparation, PCR reaction was performed in 20 μL of reaction volume as described previously.^S3 PCR conditions give by incubation at 94° C. for 3 min; 35 cycles of 94° C. for 30 s, 55-60° C. (annealing temperature: 55° C. for GAPDH, 53.6° C. for RNU6A, 58° C. for DNAJB1, 54° C. for SF3A1, 55° C. for PRPF4, 55° C. for ARF4, and 55° C. for U2AF2) for 30 s, and 72° C. for 1 min; followed by 72° C. for 5 min. PCR products were separated on a 2% agarose gel and stained with ethidium bromide.
cDNA was prepared using identical methods as used for RT-PCR analysis. The amount of unspliced RNA for different genes was determined using Power SYBR Green PCR master mix (Applied Biosystems) by qRT-PCR using specific primers designed for detection of the intron of each gene (Table 2). The qPCR was performed using 5 pM of each primer on 20 ng of the obtained cDNA. PCR conditions were as follows: one cycle of 50° C. for 2 min (UDG Incubation), one cycle of 95° C. for 10 min (UDG Inactivation), followed by 95° C. for 15 sec; 60° C. for 30 s for 40 cycles and adding a step for dissociation using a 7900 HT Fast Real Time PCR System (Applied Biosystems). Unspliced RNA levels were calculated using 2-ΔΔCT method.^S4 GAPDH was used as a control for normalization.

[3] = Solubility by capillary NMR with solvent 13C-satellites (QSCS); type: physicochemical
Text: (§1) Early studies indicate that 2 was more soluble and stable in aqueous buffers than FD-895 (1a).

[4] = Stability in aqueous buffer by NMR monitoring; type: physicochemical; conditions: after 744 h (1 month), D2O/DMSO-d6 (10:1) at 37° C.
Text: as §1

[5] = primary CLL-B cells from two CLL patients

Row | Compound | alternate splicing (AS) events [1] | IC50 (primary CLL-B cells; Homo sapiens, primary CLL-B cells, both sets of cells) | splice modulation via intron retention (IR) [2] | MCL1 long (anti-apoptotic) and short (pro-apoptotic) isoform expression [1] | IC50 (primary CLL-B cells; [5]) | solubility (soluble up to) ([3]; D2O/DMSO-d6 (10:1) at 23° C.) | IC50 (primary CLL-B cells; Homo sapiens, primary CLL-B cells from two CLL patients) | loss of activity when compared to FD-895 (1a) (primary CLL-B cells; primary CLL-B cells, IC50 based) | solubility ([3]; 23 °C, aqueous with cosolvent or surfactant or cyclodextrin) | decomposition (stability) [4]
1 | CC[C@H](OC)[C@@H](C)/C=C/[C@H](O)[C@@H](C)/C=C/C=C(\C)[C@H]1O[C@H](OC)[C@H](OC)[C@@H](OC)[C@@H]1OC [Alkene 19, (2E,4E,6S,7S,8E,10S,11S)-11-methoxy-6,10-dimethyl-2-((2R,3R,4S,5R,6S)-3,4,5,6-tetramethoxytetrahydro-2H-pyran-2-yl)trideca-2,4,8-trien-7-ol] | did not induce AS | > 50000 nM | inactive for all six genes | – | – | – | – | – | – | –
2 | CCC(OC)C(C)C1OC1C(O)C(C)/C=C/C=C(\C)C1OC(=O)CC(O)CCC(C)(O)C(OC(C)=O)/C=C/C1C (stereo not drawn) [Compound 1a, FD-895, reference compound] | – | – | – | decrease in the long (anti-apoptotic) form and increased the expression of short (pro-apoptotic) form of MCL1 | 54.1 ± 7.5 nM | 15 ± 5 mM (≈ 8.5 mg/mL) | – | – | – | –
3 | CC[C@H](OC)[C@@H](C)[C@H]1O[C@@H]1[C@H](O)[C@@H](C)/C=C/C=C(\C)[C@H]1O[C@H](OC)[C@H](OC)[C@@H](OC)[C@@H]1OC [Compound 2, (1R,2S,3E,5E)-1-((2R,3R)-3-((2R,3S)-3-methoxypentan-2-yl)oxiran-2-yl)-2-methyl-6-((2R,3R,4S,5R,6S)-3,4,5,6-tetramethoxytetrahydro-2H-pyran-2-yl)hepta-3,5-dien-1-ol] | induced alternate splicing (AS) events | – | complementary splice modulation in all six genes | decrease in the long (anti-apoptotic) form and increased the expression of short (pro-apoptotic) form of MCL1 | – | – | 153 ± 11.8 nM | ~3 fold | 95 ± 5 mM (≈ 44.9 mg/mL) | no signs of decomposition
4 | pladienolide B [Compound 1b, reference compound] | – | – | – | decrease in the long (anti-apoptotic) form and increased the expression of short (pro-apoptotic) form of MCL1 | 84.4 ± 1.2 nM | – | – | – | – | –
